In US11485731B2, “Compounds and methods useful in the treatment of a PRMT5-mediated disorder” (ARGONAUT THERAPEUTICS LIMITED, priority 2017, dated 2022):

Target: human PRMT5/MEP50 (Homo sapiens (Human), UniProt O14744)
Experiment: PRMT5 chemiluminescent assay
Type: biochemical
Conditions: human PRMT5/MEP50 expressed in HEK293 cells; biotinylated histone peptides; Histone H4 monomethyl R3 antibody; chemiluminescent readout
Description: A PRMT5 chemiluminescent assay was used to measure the IC50 activity of PRMT5 of the compounds of Examples 1A to 7 above. Biotinylated histone peptides were synthesized and attached to 384-well plates. Compound serial dilutions were performed and added to the assay plate. Histone H4 monomethyl R3 antibody was obtained from Abcam. A master mix for each well was prepared and human PRMT5/MEP50 (expressed in HEK293 cells) diluted in assay buffer to a concentration of 5 ng/μL. The reaction was incubated and slowly rotated for 60 minutes at the point of PRMT5/MEP50 addition. The supernatant from the wells was removed and blocking buffer was added to each well and rotated for 10 minutes. The primary antibody was diluted and added to every well for 60 minutes, before it was removed and the wells washed. The horse raddish peroxidase (HRP)-coupled secondary antibody was diluted and added to each well with an incubation time of 30 minutes. The HRP chemiluminescent substrate was added to every well. The plate was read on a Flourstar Omega BMG Labtech instrument (Ortenberg, Germany) and the analysis of IC50 was performed using the Flourstar Omega BMG Labtech software.

Chain of human PRMT5/MEP50 (O14744 whole entry): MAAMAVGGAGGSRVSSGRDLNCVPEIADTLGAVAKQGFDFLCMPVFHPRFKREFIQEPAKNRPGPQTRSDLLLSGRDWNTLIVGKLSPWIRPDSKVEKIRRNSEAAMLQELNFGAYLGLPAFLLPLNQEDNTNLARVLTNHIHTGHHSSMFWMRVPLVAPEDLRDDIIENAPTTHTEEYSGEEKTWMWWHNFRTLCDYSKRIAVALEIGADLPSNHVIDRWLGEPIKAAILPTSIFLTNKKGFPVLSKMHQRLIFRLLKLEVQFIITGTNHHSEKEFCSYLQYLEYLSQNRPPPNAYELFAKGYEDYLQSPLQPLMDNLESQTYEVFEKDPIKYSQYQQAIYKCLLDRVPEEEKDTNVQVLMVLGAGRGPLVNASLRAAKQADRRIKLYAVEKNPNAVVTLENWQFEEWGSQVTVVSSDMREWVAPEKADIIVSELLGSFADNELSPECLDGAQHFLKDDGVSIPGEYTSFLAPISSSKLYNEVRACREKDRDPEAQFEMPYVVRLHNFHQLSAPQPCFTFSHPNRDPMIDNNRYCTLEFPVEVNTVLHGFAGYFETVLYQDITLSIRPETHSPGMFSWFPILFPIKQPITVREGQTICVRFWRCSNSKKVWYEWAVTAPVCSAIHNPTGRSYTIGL
Chain of human PRMT5/MEP50 (Q9BQA1 whole entry partner): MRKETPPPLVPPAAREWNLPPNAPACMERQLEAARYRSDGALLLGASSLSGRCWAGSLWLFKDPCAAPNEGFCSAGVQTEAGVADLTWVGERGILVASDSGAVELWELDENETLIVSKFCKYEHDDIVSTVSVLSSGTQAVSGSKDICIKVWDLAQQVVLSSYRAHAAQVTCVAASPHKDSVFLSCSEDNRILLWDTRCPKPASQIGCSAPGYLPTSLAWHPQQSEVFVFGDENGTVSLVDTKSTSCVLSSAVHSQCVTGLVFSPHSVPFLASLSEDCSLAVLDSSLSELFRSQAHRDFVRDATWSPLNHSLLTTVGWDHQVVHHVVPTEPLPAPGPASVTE

Structure (SMILES)	IC50
CC(=O)N1CCCN(C(=O)NCC(O)CN2CCc3ccccc3C2)CC1 (centres unmarked) [Example 1CM, 4-acetyl-N-(3-(3,4-dihydroisoquinolin-2(1H)-yl)-2-hydroxypropyl)-1,4-diazepane-1-carboxamide]	125 nM
COC(=O)N1CCCN(C(=O)NC[C@H](O)CN2CCc3ccccc3C2)CC1 [Example 1AS, Methyl (S)-4-((3-(3,4-dihydroisoquinolin-2(1H)-yl)-2-hydroxypropyl)carbamoyl)-1,4-diazepane-1-carboxylate]	112 nM
CN1CCN(C2CCCN(C(=O)NC[C@H](O)CN3CCc4ccccc4C3)C2)CC1 (stereo partly drawn) [Example 1BY, N-((S)-3-(3,4-dihydroisoquinolin-2(1H)-yl)-2-hydroxypropyl)-3-(4-methylpiperazin-1-yl)piperidine-1-carboxamide]	2650 nM
O=C(NC[C@H](O)CN1CCc2ccccc2C1)N1CCC[C@H](C2CCOCC2)C1 (single isomer, unassigned) [Example 5H, (R)-N-((S)-3-(3,4-dihydroisoquinolin-2(1H)-yl)-2-hydroxypropyl)-3-(tetrahydro-2H-pyran-4-yl)piperidine-1-carboxamide compound or (S)-N-((S)-3-(3,4-dihydroisoquinolin-2(1H)-yl)-2-hydroxypropyl)-3-(tetrahydro-2H-pyran-4-yl)piperidine-1-carboxamide]	511 nM
O=C(NCC(O)CN1CCc2ccccc2C1)N1CCC(Oc2ccccc2)CC1 (centres unmarked) [Example 1G, N-[2-hydroxy-3-(1,2,3,4-tetrahydroisoquinolin-2-yl)propyl]-4-phenoxypiperidine-1-carboxamide]	568 nM
O=C(NCC(O)CN1CCc2ccccc2C1)N1CCCC(c2ccccc2)C1 (centres unmarked) [Example 1E, N-[2-hydroxy-3-(1,2,3,4-tetrahydroisoquinolin-2-yl)propyl]-3-phenylpiperidine-1-carboxamide]	8 nM
O=C(NC[C@H](O)CN1CCc2ccccc2C1)N1CCCC(n2cccn2)C1 (stereo partly drawn) [Example 1BK, N-((S)-3-(3,4-dihydroisoquinolin-2(1H)-yl)-2-hydroxypropyl)-3-(1H-pyrazol-1-yl)piperidine-1-carboxamide]	396 nM
O=C(NC[C@H](O)CN1CCc2ccccc2C1)N1CCCc2ccccc21 [Example 1AJ, (S)-N-(3-(3,4-dihydroisoquinolin-2(1H)-yl)-2-hydroxypropyl)-3,4-dihydroquinoline-1(2H)-carboxamide]	80 nM
O=C(NCC(O)CN1CCc2ccccc2C1)N1CCC(Cc2ccccc2)CC1 (centres unmarked) [Example 1Q, 4-benzyl-N-(3-(3,4-dihydroisoquinolin-2(1H)-yl)-2-hydroxypropyl)piperidine-1-carboxamide]	276 nM
O=C(NC[C@H](O)CN1CCc2ccccc2C1)N1CCC(N2CCSCC2)C1 (stereo partly drawn) [Example 1CE, N-((S)-3-(3,4-dihydroisoquinolin-2(1H)-yl)-2-hydroxypropyl)-3-thiomorpholinopyrrolidine-1-carboxamide]	3100 nM
O=C(NC[C@H](O)CN1CCc2ccccc2C1)N1CCCSCC1 [Example 1AT, (S)-N-(3-(3,4-dihydroisoquinolin-2(1H)-yl)-2-hydroxypropyl)-1,4-thiazepane-4-carboxamide]	691 nM
O=C(NC[C@H](O)CN1CCc2ccccc2C1)N1CCCC(N2CCSCC2)C1 (stereo partly drawn) [Example 1BX, N-((S)-3-(3,4-dihydroisoquinolin-2(1H)-yl)-2-hydroxypropyl)-3-thiomorpholinopiperidine-1-carboxamide]	634 nM
O=C(NCC(O)CN1CCc2ccccc2C1)N1CCCC(c2ccccc2)CC1 (centres unmarked) [Example 1CN, N-(3-(3,4-dihydroisoquinolin-2(1H)-yl)-2-hydroxypropyl)-4-phenylazepane-1-carboxamide]	1100 nM
O=C(NC[C@H](O)CN1CCc2ccccc2C1)N1CCS(=O)(=O)C(c2ccccc2)C1 (stereo partly drawn) [Example 1CG, N-((S)-3-(3,4-dihydroisoquinolin-2(1H)-yl)-2-hydroxypropyl)-2-phenylthiomorpholine-4-carboxamide 1,1-dioxide]	422 nM
O=C(NC[C@H](O)CN1CCc2ccccc2C1)N1CCCC(O)(c2ccccc2)C1 (stereo partly drawn) [Example 1BH, N-((S)-3-(3,4-dihydroisoquinolin-2(1H)-yl)-2-hydroxypropyl)-3-hydroxy-3-phenylpiperidine-1-carboxamide]	167 nM
O=C(NC[C@H](O)CN1CCc2ccccc2C1)N1CCC[C@H](C2CCOCC2)C1 (single isomer, unassigned) [Example 5G, (R)-N-((S)-3-(3,4-dihydroisoquinolin-2(1H)-yl)-2-hydroxypropyl)-3-(tetrahydro-2H-pyran-4-yl)piperidine-1-carboxamide compound or (S)-N-((S)-3-(3,4-dihydroisoquinolin-2(1H)-yl)-2-hydroxypropyl)-3-(tetrahydro-2H-pyran-4-yl)piperidine-1-carboxamide]	394 nM
Cc1cc(C2CCCN(C(=O)NC[C@H](O)CN3CCc4ccccc4C3)C2)ccn1 (stereo partly drawn) [Example 1BT, N-((S)-3-(3,4-dihydroisoquinolin-2(1H)-yl)-2-hydroxypropyl)-3-(2-methylpyridin-4-yl)piperidine-1-carboxamide]	127 nM
O=C(NCC(O)CN1CCc2ccccc2C1)N1CCCC1 (centres unmarked) [Example 1M, N-[2-hydroxy-3-(1,2,3,4-tetrahydroisoquinolin-2-yl)propyl]pyrrolidine-1-carboxamide]	6870 nM
O=C(NCC(O)CN1CCc2ccsc2C1)N1CCCC(c2ccccc2)C1 (centres unmarked) [Example 1AD, N-(3-(4,7-dihydrothieno[2,3-c]pyridin-6(5H)-yl)-2-hydroxypropyl)-3-phenylpiperidine-1-carboxamide]	652 nM
O=C(NC[C@H](O)CN1CCc2ccccc2C1)N1CCCS(=O)(=O)C(c2ccccc2)C1 (stereo partly drawn) [Example 1BO, N-((S)-3-(3,4-dihydroisoquinolin-2(1H)-yl)-2-hydroxypropyl)-2-phenyl-1,4-thiazepane-4-carboxamide 1,1-dioxide]	1820 nM

Now from value to compound:

IC50	Structure (SMILES)
360 nM	O=C(OCC(O)CN1CCc2ccccc2C1)N1CCCc2ccccc21 (centres unmarked) [Example 4AG, 3-(3,4-dihydroisoquinolin-2(1H)-yl)-2-hydroxypropyl 3,4-dihydroquinoline-1(2H)-carboxylate]
49 nM	O=C(OC[C@@H](O)CN1CCc2ccccc2C1)N1CCC(c2ccccc2)C1 (stereo partly drawn) [Example 4F, (S)-3-(3,4-dihydroisoquinolin-2(1H)-yl)-2-hydroxypropyl 3-phenylpyrrolidine-1-carboxylate]
173 nM	O=C(OCC(O)CN1CCc2ccccc2C1)N1CCC(Cc2ccccc2)CC1 (centres unmarked) [Example 4D, 3-(3,4-dihydroisoquinolin-2(1H)-yl)-2-hydroxypropyl 4-benzylpiperidine-1-carboxylate]
246 nM	CN1CCCN(C(=O)OCC(O)CN2CCc3ccccc3C2)CC1 (centres unmarked) [Example 4J, 3-(3,4-dihydroisoquinolin-2(1H)-yl)-2-hydroxypropyl 4-methyl-1,4-diazepane-1-carboxylate]
1460 nM	O=C(OCC(O)CN1CCc2sccc2C1)N1CCCc2ccccc21 (centres unmarked) [Example 4Y, 3-(6,7-dihydrothieno[3,2-c]pyridin-5(4H)-yl)-2-hydroxypropyl 3,4-dihydroquinoline-1(2H)-carboxylate]
448 nM	O=C(OCC(O)CN1CCc2ccsc2C1)N1CCCc2ccccc21 (centres unmarked) [Example 4Z, 3-(4,7-dihydrothieno[2,3-c]pyridin-6(5H)-yl)-2-hydroxypropyl 3,4-dihydroquinoline-1(2H)-carboxylate]
